Results taken from patent US20100113599A1, “AMPHIPATHIC CARBOXYLATES FOR THE TREATMENT OF IMMUNE-RELATED DISORDERS” (Syndromex Ltd. c/o Yissum Research Development Company, of, priority 2007, published 2010).

How the values were obtained:
human CRP = assay: Basal plasma human CRP in hCRPtg mice (ELISA); assay type: in vivo; details: 80 mg/kg/d by gavage for ten days, before treatment 0.619
Description: hCRPtg were treated for 10d with M16αα (80 mg/kg/d) dissolved in 1% CMC and administered by gavage. Plasma basal CRP was determined before and at the end of treatment by ELISA.
Unlike human CRP, mouse CRP is not an acute-phase reactant, and is synthesized hi trace amounts only. However, male hCRP transgene mice (hCRPtg), having the human CRP gene flanked by most of human CRP promoter integrated in their genome, constitutively produce human CRP, with serum levels ranging between 10 and 20 μg/mL.
Therefore, hCRPtg mice were treated for ten days with M16αα (80 mg/kg/d) dissolved in 1% CMC and administered by gavage. Plasma CRP was determined by ELISA at the beginning and at the end of treatment. […] The inventors further examined the effect of the MEDICA drugs on LPS-induced CRP. Therefore, CRP expression was analyzed in hCRPtg mice treated with M16αα 0.06% (W/W) (about 60 mg/kg body weight/day) for fourteen days and challenged with LPS (25 μg/mice) for the last 18 h. As illustrated by the histogram of FIG. 25, treatment with M16αα decreases LPS-induced levels of human CRP.

STAT3, GP130 = assay: STAT3 activation and GP130 in stimulated spleen cells of treated EAE mice (Western blot); assay type: in vivo; details: EAE mice 60 mg/kg/day 12 days by gavage
Description: (§1) To further investigate the preventive potential of MEDICA drugs, and specifically of M16αα on EAE model, the effect of these drugs on different pathways involving activation of the immune system have been next examined. Therefore, female mice were treated with M16αα (60 mg/kg/day) or vehicle (1% CMC, the control group) for 12 days by gavage. On the third day EAE has been induced by injection of the MOG35-55 peptide. Nine days following MOG35-55 peptide immunization, mice were anesthesized and sacrificed. Spleenocytes were prepared and were stimulated in vitro with either MOG (100 μg/ml) or LPS (50 μg/ml) and the activation of STAT3 was analyzed by Western blot using anti p-STAT3 (Y705) and anti GP130 antibodies. Liver was immediately frozen in liquid nitrogen and kept at −70 until used for protein and RNA preparation. Total RNA was prepared and analyzed by real time PCR for SAP, SAA, α-fibrinogen and IL-6 gene expression.

[1] = system: liver APP (SAP, SAA, α-fibrinogen) and IL-6 gene expression; assay: Liver Acute Phase Proteins and IL-6 gene expression in EAE mice (real time PCR); assay type: in vivo; details: EAE mice 60 mg/kg/day 12 days by gavage
Description: as §1

U266 cells [2] = assay: Growth of Multiple Myeloma U266 cells, Trypan Blue exclusion; assay type: cell-based; details: 200 μM, day 6
Description: Growth Suppression by M16αα of Multiple Myeloma (MM) cells. MM cells were incubated in RPMI 1640 medium in the presence of added M16αα as indicated. Cell number was determined daily by Trypan Blue exclusion.
The inhibitory effect of MEDICA drugs on colon tumor cell proliferation, presumably via activation of apoptosis, encouraged the inventors to further investigate the potential beneficial effect of these compounds on other malignancies. The inventors therefore next examined the effect of the MEDICA drugs using the Multiple myeloma model. U-266 and RPMI-8226 cell lines served as cell models for MM. MM cells were incubated in RPMI 1640 medium in the presence of M16αα as indicated. Cell number was determined daily by Trypan Blue exclusion assay. […] It should be noted that generally, these cells were more sensitive even to lower concentrations of M16αα.

STAT3 = STAT3 phosphorylation in MM U266 cells (Western blot); assay type: cell-based; details: 200 μM, RPMI 1640, 10% FCS
Description: U266 cells were cultured with 200 μM M16αα for time periods as indicated, lysed, Western blotted and reacted with anti STAT3, p-STAT3 (Y705), PARP or Bcl-xL antibodies.
To examine the possibility that the inhibitory effect of M16αα, on Multiple Myeloma may be mediated by enhancement of pro apoptotic mechanism and induction of cell cycle arrest, U266 cells were cultured with 200 μM M16αα in RPMI 1640 medium with 10% FCS for time periods as indicated, lysed, Western blotted and reacted with anti STAT3, p-STAT3 (Y705), PARP or Bcl-xL and Bcl-2 as indicated.

HT29 colon cancer cells = assay: HT29 cell number, trypan blue exclusion assay; assay type: cell-based; details: 200 μM, days 1, 2, 3 and 6
Description: Abbreviations: D. (days) cont, (control), RCN (relative cell number).
Cells were cultured in Dulbecco's Modified Eagle Medium (DMEM) supplemented with 10% fetal calf serum, glutamine and antibiotics (100,000 units/L penicillin and 100 mg/L streptomycin sulfate).
The involvement of MEDICA drugs in signal transduction pathways related to immuno-modulatory mechanisms have led the inventors to further investigate the effect of the MEDICA drugs in different disorders associated with abnormal immune reaction. Since cancerous processes may be promoted as a result of interruption of the Th1/Th2 balance, the possible beneficial effect of the MEDICA drugs on tumor proliferation and progression have been next examined. The effect of different concentrations M16αα on cell proliferation was first examined in vitro using the HT29 colon cancer cells as a model for colon cancer. Cells were cultured in the presence of different concentrations of M16αα (50, 100, and 200 μM). Samples obtained from days 1, 2, 3 and 6 were analyzed for cell number using the trypan blue exclusion assay. Proliferation was measured by BrdU incorporation assay.

U266 cells [3] = assay: Cell cycle arrest markers in MM U266 cells (Western blot); assay type: cell-based; details: 200 μM, 24 h
Description: U266 cells were cultured with 200 μM M16αα in RPMI 1640 medium with 10% FCS for 24 h, lysed, Western blotted and reacted with anti Cyclin D1, p-P53 (S15) and p-Rb as indicated.

CC(C)(CCCCCCCCCCCCC(C)(C)C(=O)O)C(=O)O [M16αα, 2,2,15,15-tetramethyl-hexadecanedioic acid]
basal levels of human CRP in plasma at the end of treatment (human CRP): 0.396
LPS-induced STAT3 (p-STAT3 Y705) in spleen cells (STAT3, GP130; spleenocytes stimulated in vitro with LPS 50 μg/ml): not the LPS-induced STAT3 is suppressed
MOG-induced STAT3 (p-STAT3 Y705) in spleen cells (STAT3, GP130; spleenocytes stimulated in vitro with MOG 100 μg/ml): suppressed
liver APP and IL-6 gene expression [1]: robustly suppressed
cell proliferation (U266 cells [2]): complete inhibition
STAT3 phosphorylation (p-STAT3 Y705) (STAT3): clear reduction
cell number (relative cell number) (HT29 colon cancer cells): significant reduction
Cyclin D1 expression (U266 cells [3]): reduction
phosphorylated Rb (U266 cells [3]): reduction
phosphorylated p53 (U266 cells [3]): increase
